Laboratory results as given in ChEMBL document CHEMBL5725542, “Plasminogen activator inhibitor-1 inhibitors and methods of use thereof” (2017).

Experiments:
[1] = Fluorometric PAI-1/uPA IC50 Plate Assay: To determine the efficacy of various synthesized compounds as PAI-1 inhibitors, a fluorometric plate assay was carried out to measure the half maximal inhibitory concentration (IC50) of these compounds on recombinant active human PAI-1 in vitro. An IC50 is a measure of the effectiveness of a compound in inhibiting biological or biochemical function. Stated another way, IC50 represents the concentration of a drug that is required for 50% inhibition in vitro. The IC50 of various compounds was measured using a fluorometric plate assay. PAI-1 inhibitor compounds were dissolved in DMSO to a final concentration of (10-50 mM), depending upon solubility. Compounds were then diluted in physiologic buffer (40 mM HEPES, 100 mM NaCl, 0.05% Tween-20, pH7.4) containing 10% DMSO and a dilution series (from 0 to 1000 uM depending on solubility) was prepared. 80 μL of compound was added per well to a 96-well black, opaque microplate in duplicate. 10 μL of 20 nM Recombinant active human PAI-1 (Molecular Innovations) in physiologic buffer (40 mM HEPES, 100 mM NaCl, 0.05% Tween-20, 10% DMSO, pH 7.4), or […] physiologic buffer with 10% human plasma, was added and the mixture was agitated for 15 minutes at room temperature. 10 μL of 25 nM uPA (Rheotromb®) was added to each reaction well and the plate was agitated for an additional 30 minutes at room temperature. Tripeptide aminomethylcoumarin Gly-Gly-Arg-AMC (Calbiochem) fluorogenic substrate (100 μL of 100 μM) was then added and residual uPA activity was determined based upon cleavage of this substrate. The rate of AMC release by uPA (fluorescence) was measured at an excitation wavelength of 370 nm and an emission wavelength of 440 nm. Controls included PAI-1 and uPA in the absence of compound and uPA alone. Percent PAI-1 inhibition was calculated using the following formula: [(uPA alone-uPA/PAI-1+ compound)/(uPA alone-PAI-1/uPA)]*100%. The IC50 was calculated using Graphit (IC50 0-100%).
[2] = (§1) Fluorometric PAI-1/uPA IC50 Plate Assay (1.5% BSA buffer): To determine the efficacy of various synthesized compounds as PAI-1 inhibitors, a fluorometric plate assay was carried out to measure the half maximal inhibitory concentration (IC50) of these compounds on recombinant active human PAI-1 in vitro. An IC50 is a measure of the effectiveness of a compound in inhibiting biological or biochemical function. Stated another way, IC50 represents the concentration of a drug that is required for 50% inhibition in vitro. The IC50 of various compounds was measured using a fluorometric plate assay. PAI-1 inhibitor compounds were dissolved in DMSO to a final concentration of (10-50 mM), depending upon solubility. Compounds were then diluted in physiologic buffer (40 mM HEPES, 100 mM NaCl, 0.05% Tween-20, pH7.4) containing 10% DMSO and a dilution series (from 0 to 1000 uM depending on solubility) was prepared. 80 μL of compound was added per well to a 96-well black, opaque microplate in duplicate. 10 μL of 20 nM Recombinant active human PAI-1 (Molecular Innovations) in physiologic buffer (40 mM HEPES, 100 mM NaCl, 0.05% Tween-20, 10% DMSO, pH 7.4), or […] physiologic buffer with 10% human plasma, was added and the mixture was agitated for 15 minutes at room temperature. […]
[3] = as §1, with “(10% plasma” for “(1.5% BSA”

| SMILES | IC50 [1] [µM] | IC50 [2] [µM] | IC50 [3] [µM] |
| --- | --- | --- | --- |
| NNC(=O)C(=O)NCCc1ccc(CO)c(CO)c1 | 2560 | – | – |
| COc1cc(CO)cc(CNC(=O)C(=O)NN)c1 | 4320 | – | – |
| COc1cc(CO)ccc1CNC(=O)C(=O)NN | 2280 | – | – |
| [C-]#[N+]c1ccc(CNC(=O)C(=O)NN)cc1 | 5470 | 892 | 851 |
